Consider 11 compounds from ChEMBL document CHEMBL1201862, “PubChem BioAssay data set” (2004).

Some test systems named below: NCI/ADR-RES; NCI-H226; ACHN; HOP-92; UO-31; HCT-15; IGROV-1; BT-549; HT-29; OVCAR-4; SK-MEL-5; DU-145; HOP-62; TK-10; NCI-H23; OVCAR-8; 786-0; SNB-19; SK-OV-3.
Holding throughout (test): NCI-60 cell line screen, 48 h

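Step 1: Grow cells in 96-well plates. Step 2: Expose to compound for 48 hours at 5 concentrations. Step 3: Interpolate endpoints linearly; if unreached, use highest concentration. GI50 is the concentration that inhibits growth by half.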 Activity calls are given as the source filed them. No stated cut-off is given here; in the data, active = GI50 up to about 1.1 µM and inactive = higher. Square brackets hold non-standard residues; d marks the D form. Peptide text beside a SMILES is read from it. * marks the point of attachment. Boc = CC(C)(C)OC(=O)*; OBn = c1ccc(CO*)cc1 Some results are limits rather than exact numbers.

As to `CCOC(=O)C1C(=O)CC(C)(O)C(C(=O)OCC)C1c1ccc(OC)cc1` (stereo not drawn), the GI50 was > 100 µM (inactive) in the assay with NCI/ADR-RES; 1.6 µM (inactive) with NCI-H226; > 100 µM (inactive) in the assay on ACHN; > 100 µM (inactive) with HOP-92; > 100 µM (inactive) with UO-31; above 100 µM in the assay with HCT-15. In addition, the GI50 in the assay on IGROV-1, in the assay with BT-549, in the assay with HT-29, with OVCAR-4, in the assay with SK-MEL-5 and in the assay on DU-145 was > 100 µM (inactive) throughout. The GI50 in the assay with HOP-62, in the assay with TK-10, in the assay with NCI-H23, in the assay with OVCAR-8, in the assay on 786-0 and with SNB-19 was > 100 µM (inactive) each time.
As for `O=CN1CCN(C(=O)c2ccc(Cl)cc2)C1=S`, the GI50 is 36.5 µM (inactive) in the assay on NCI/ADR-RES; 43.5 µM (inactive) in the assay with NCI-H226; 17.3 µM (inactive) in the assay with ACHN; 0.714 µM (active) in the assay with HOP-92; 21.3 µM with HCT-15; 14.2 µM (inactive) in the assay on IGROV-1. Also, the GI50 in the assay on BT-549 was 25.4 µM (inactive); in the assay on HT-29, 17.2 µM (inactive); with OVCAR-4, 17.3 µM (inactive); with DU-145, 15.7 µM (inactive); with HOP-62 it was 19.1 µM (inactive); in the assay with TK-10, 15 µM (inactive). Also, the GI50 in the assay on NCI-H23 was 23 µM (inactive); in the assay on OVCAR-8, 15.6 µM (inactive); in the assay with 786-0, 6.79 µM (inactive); in the assay on SK-OV-3, 25.1 µM (inactive); in the assay on SNB-19, 15.6 µM (inactive).
As for `CN(C(=O)c1ccc2c(c1)sc1c(=O)n(C)c3ccccc3c12)c1ccccc1`, the GI50 in the assay on NCI/ADR-RES is > 100 µM (inactive); in the assay on NCI-H226, > 100 µM (inactive); in the assay on ACHN, 33.7 µM (inactive); in the assay with HOP-92, > 100 µM (inactive); with UO-31, 37.7 µM (inactive); in the assay with HCT-15 it was above 100 µM. In addition, the GI50 in the assay with IGROV-1, in the assay on BT-549, in the assay with HT-29, in the assay with OVCAR-4, with SK-MEL-5 and with DU-145 was > 100 µM (inactive) throughout. Besides, the GI50 was > 100 µM (inactive) in the assay on TK-10; > 100 µM (inactive) with NCI-H23; > 100 µM (inactive) in the assay with OVCAR-8; 59.7 µM (inactive) in the assay with 786-0; > 100 µM (inactive) with SK-OV-3; > 100 µM (inactive) in the assay with SNB-19.
On to `COc1ccccc1/C=C/c1nc2ccccc2o1`, for which the GI50 was > 10 µM (inactive) in the assay on NCI/ADR-RES; > 10 µM (inactive) in the assay with NCI-H226; > 10 µM (inactive) in the assay on ACHN; 6.19 µM (inactive) with HOP-92; above 10 µM in the assay on HCT-15; > 10 µM (inactive) in the assay with IGROV-1. In addition, the GI50 in the assay on BT-549, with HT-29, with OVCAR-4, with SK-MEL-5, in the assay with DU-145 and in the assay on HOP-62 was > 10 µM (inactive) throughout. The GI50 in the assay with TK-10, with NCI-H23, with OVCAR-8, with 786-0, with SK-OV-3 and in the assay with SNB-19 was > 10 µM (inactive) throughout.
As for `O=c1oc(-c2ccc(O)cc2)cc2cc(O)ccc12`, the GI50 is 19.7 µM (inactive) in the assay with NCI/ADR-RES; 34.9 µM (inactive) in the assay on ACHN; 21.7 µM (inactive) with HOP-92; 13.3 µM (inactive) in the assay on UO-31; 43.2 µM in the assay with HCT-15; 19.9 µM (inactive) with IGROV-1. Besides, the GI50 in the assay on BT-549 was 23 µM (inactive); with OVCAR-4, 32.7 µM (inactive); with SK-MEL-5, 11.2 µM (inactive); in the assay on DU-145, 39 µM (inactive); in the assay on HOP-62, 34.8 µM (inactive); in the assay with TK-10, 41.6 µM (inactive). For the same compound, the GI50 was 20.9 µM (inactive) with NCI-H23; 41.9 µM (inactive) in the assay with OVCAR-8; 39.4 µM (inactive) in the assay on 786-0; 26.3 µM (inactive) in the assay with SK-OV-3; 20.6 µM (inactive) in the assay with SNB-19.
In the case of `COC(OC)[C@@H]1OC[C@@H](O)[C@@H]1n1cnc2c(N)ncnc21`, the GI50 with NCI/ADR-RES is > 100 µM (inactive); in the assay with NCI-H226, > 100 µM (inactive); with ACHN, > 100 µM (inactive); in the assay with HOP-92, > 100 µM (inactive); in the assay with UO-31 it was > 100 µM (inactive); in the assay on HCT-15, above 100 µM. Further, the GI50 in the assay on IGROV-1, in the assay with BT-549, with HT-29, with OVCAR-4, with SK-MEL-5 and with DU-145 was > 100 µM (inactive) throughout. Also, the GI50 in the assay with HOP-62, in the assay with TK-10, in the assay with NCI-H23, in the assay on 786-0 and in the assay on SK-OV-3 was > 100 µM (inactive) in each case.
As to `CC1(C)Cc2c(c3ccccc3c3nc4c(nc23)c2c(c3ccccc34)OC(C)(C)C2)O1`, the GI50 in the assay with NCI/ADR-RES is > 100 µM (inactive); in the assay with ACHN it was > 100 µM (inactive); in the assay with HOP-92 it was > 100 µM (inactive); in the assay on HCT-15, above 100 µM; with IGROV-1 it was > 100 µM (inactive); with BT-549 it was > 100 µM (inactive). The GI50 with HT-29, in the assay on OVCAR-4, in the assay on SK-MEL-5, in the assay on DU-145, with HOP-62 and in the assay with TK-10 was > 100 µM (inactive) throughout. In addition, the GI50 in the assay with NCI-H23, in the assay with OVCAR-8, in the assay on 786-0, in the assay with SK-OV-3 and in the assay on SNB-19 was > 100 µM (inactive) each time.
Regarding `CC1=NN2C(=O)CC(=O)N=C2S1`, the GI50 with NCI/ADR-RES is > 100 µM (inactive); in the assay on NCI-H226, > 100 µM (inactive); in the assay on ACHN, > 100 µM (inactive); in the assay on HOP-92, > 100 µM (inactive); in the assay on HCT-15, above 100 µM; in the assay on IGROV-1, > 100 µM (inactive). Besides, the GI50 with BT-549, in the assay on HT-29, in the assay with OVCAR-4, in the assay with SK-MEL-5, with DU-145 and in the assay with HOP-62 was > 100 µM (inactive) throughout. Also, the GI50 in the assay on TK-10, with NCI-H23, in the assay with OVCAR-8, in the assay with 786-0, with SK-OV-3 and in the assay on SNB-19 was > 100 µM (inactive) each time.
As for `O=C(O)C1CCCN(CCc2c[nH]c3ccccc23)C1` (stereo not drawn), the GI50 in the assay on NCI/ADR-RES is > 100 µM (inactive); in the assay on NCI-H226, > 100 µM (inactive); with ACHN, > 100 µM (inactive); with HOP-92 it was > 100 µM (inactive); in the assay on HCT-15, above 100 µM; in the assay with IGROV-1, > 100 µM (inactive). The GI50 in the assay on BT-549, in the assay with HT-29, with OVCAR-4, in the assay on DU-145, with HOP-62 and in the assay with TK-10 was > 100 µM (inactive) in each case. Moreover, the GI50 in the assay on NCI-H23, in the assay on OVCAR-8, in the assay on 786-0, with SK-OV-3 and with SNB-19 was > 100 µM (inactive) in each case.
Regarding `COC(=O)C(COC(=O)/C=C/c1ccc(OC(C)=O)c(OC(C)=O)c1)OC(=O)/C=C/c1ccc(OC(C)=O)c(OC(C)=O)c1` (stereo not drawn), the GI50 in the assay with NCI/ADR-RES is 20 µM (inactive); with NCI-H226 it was 24.5 µM (inactive); in the assay on ACHN, 14.5 µM (inactive); in the assay on HOP-92, 18 µM (inactive); in the assay with UO-31 it was 10 µM (inactive); with HCT-15 it was 5.38 µM. In addition, the GI50 in the assay with IGROV-1 is 4.94 µM (inactive); in the assay on BT-549, 15.1 µM (inactive); in the assay on HT-29, 6.9 µM (inactive); in the assay on OVCAR-4, 15.3 µM (inactive); in the assay on SK-MEL-5 it was 14.8 µM (inactive); in the assay on DU-145, 12.1 µM (inactive). In addition, the GI50 in the assay with HOP-62 was 10.2 µM (inactive); in the assay with TK-10, 18.6 µM (inactive); with NCI-H23, 12 µM (inactive); in the assay with OVCAR-8, 11.8 µM (inactive); in the assay with 786-0, 11.8 µM (inactive); in the assay with SNB-19 it was 8.32 µM (inactive).
As for `C[C@@H](NC(=O)CNC(=O)OC(C)(C)C)C(=O)N[C@@H](Cc1ccccc1)C(=O)OCc1ccccc1` (Boc-Gly-[dA]-Phe-OBn), the GI50 in the assay on NCI/ADR-RES was > 100 µM (inactive); with NCI-H226 it was 51.1 µM (inactive); with ACHN, 57.9 µM (inactive); in the assay with HOP-92, 17.8 µM (inactive); in the assay on UO-31 it was 51.2 µM (inactive); in the assay on HCT-15 it was above 100 µM. The GI50 in the assay with IGROV-1 is 67.9 µM (inactive); in the assay with BT-549, > 100 µM (inactive); in the assay with HT-29, 90.4 µM (inactive); with OVCAR-4, > 100 µM (inactive); in the assay on SK-MEL-5, 22.8 µM (inactive); with DU-145, > 100 µM (inactive). Besides, the GI50 with TK-10 is > 100 µM (inactive); with NCI-H23, > 100 µM (inactive); in the assay with OVCAR-8, > 100 µM (inactive); with 786-0, 84.7 µM (inactive); in the assay on SK-OV-3, > 100 µM (inactive); in the assay on SNB-19 it was > 100 µM (inactive).
